In patent US11174216B2, “Lipids that increase insulin sensitivity and methods of using the same” (Beth Israel Deaconess Medical Center, Inc., priority 2012, dated 2021):

Tests used:
Human islets = assay: Insulin release from primary human islet cells; assay type: cell-based; details: 45 min
Description: Two human donors provided cells used in these studies. Donor 1 was a person, 5′0″, 157 lbs, with a BMI of 30.5, HbA1C was 5.8, who died from a stroke, but it was witnessed and they had no downtime. Islets were 80% pure and 95% viable. After arrival, islets were incubated overnight in human islet media before stimulation with glucose in presence and absence of 5-PAHSA (lipid A-5). Note 1 IU of Human Insulin=6 nmol=34.8 μg Insulin.
Human islets were divided into ten groups [100 islets per condition]
A] Low glucose [2.5 mM]; B] High glucose [20.0 mM]; C] Low glucose [2.5 mM]+2.5 μL/mL Methanol; D] High glucose [20.0 mM]+2.5 μL/mL Methanol; E] Low glucose+20 μM Lipid A-5; F] High glucose+20 μM Lipid A-5; G] Low glucose+50 μM Lipid A-5; H] High glucose+50 μM Lipid A-5.
Islets were cultured overnight in Human Islet media and next day incubated with KRB buffer for 4 h prior to glucose stimulation.
Following KRB incubation, islets were stimulated with glucose [2.5 mM & 20.0 mM] in the presence and absence of Lipid A-5 [20 & 50 μM] for 45 min
At the end of glucose stimulation the amount of insulin released [μ IU/mL] into the media was measured using Human Insulin ELISA kit. And the insulin content from the islets were extracted to express insulin released into the media as μ IU/mL/islet content. […]

[1] = test system: FAHFA hydrolysis activity in liver lysate
[2] = test system: LPS-activated dendritic cells; assay: LPS-induced maturation/activation of bone marrow-derived dendritic cells; assay type: cell-based, mouse
Description: Mouse bone marrow cells were flushed from the femurs and tibiae. The red blood cells were eliminated and the cells plated at a density of 1.0×10^6 cells/mL in RBMI complete medium containing 10% FCS plus 20 ng/ml GM-CSF. The medium was replaced on day 4, and the cells were harvested on day 6 to obtain immature DCs. To obtain mature DCs, LPS was added to the cultures at a final concentration of 100 ng/mL on day 6, and the cells were cultured for an additional 24 h, as previously described by Macia, L., et al. Impairment of dendritic cell functionality and steady-state number in obese mice. J Immunol 177, 5997-6006 (2006), which is incorporated by reference in its entirety. […] The activation status of the BMDCs was evaluated by measuring the expression of MHCII and co-stimulatory molecules using Flow Cytometry and by the production of pro-inflammatory cytokines (IL-6, TNF, IL-12 and IL-1β) which was assessed by ELISA. […]
The immature dendritic cells obtained in the day 6 were maturated with LPS in the presence of different concentrations of 9-PAHSA varying between 100 ng/mL to 20 ug/mL. The cells were maturated for 24 h and the maturation status analyzed by cytokine production and co-stimulatory molecules expression.
The cells were analyzed by Multicolor Flow cytometry. […] The cells were analyzed with an LSR II flow cytometer (BD) and FlowJo software. […]

[3] = test system: FAHFA hydrolysis activity in pancreas membrane lysate; assay: FAHFA hydrolysis activity assay, pancreas membrane lysate; details: 1 mg/ml protein, 100 uM 9-PAHSA, 30 min, room temperature

SMILES	Glucose Stimulated Insulin Secretion (Human islets; human islets from Donor 1, 20 and 50 uM)	Glucose Stimulated Insulin Secretion (Human islets; human islets from Donor 2, 20 uM)	hydrolysis of 9-PAHSA to 9-HSA [1]	LPS-induced dendritic cell activation (expression of MHCII, CD40, CD80, CD86) ([2]; 100 ng/mL LPS, 24 h, flow cytometry)	IL-12 production ([2]; LPS-activated dendritic cells, ELISA)	FAHFA hydrolysis activity, pancreas membrane versus liver membrane [3]
CCCCCCCCCCCCCCCC(=O)OC(CCCCCCCCCCCCC)CCCC(=O)O (stereo not drawn) [5-PAHSA]	induces Glucose Stimulated Insulin Secretion	induces Glucose Stimulated Insulin Secretion	–	–	–	–
CCCCCCCCCCCCCCCC(=O)OC(CCCCCCCCC)CCCCCCCC(=O)O (stereo not drawn) [9-PAHSA, palmitoyl-9-hydroxystearic acid]	–	–	Substantial 9-HSA production	prevents LPS-induced dendritic cell activation in a dose dependent manner	blocks IL-12 production	~10 fold
